This note sets out measurements from patent publication US20260125382A1, “COMPOUNDS FOR INHIBITING OR DEGRADING CDK2 AND/OR CDK9 AND MEDICINAL USE THEREOF” (KOREA RESEARCH INSTITUTE OF CHEMICAL TECHNOLOGY, priority 2022, published 2026).

Structures are written as SMILES.

The target of one test is T1, CDK2 (Homo sapiens, UniProt P24941).
T1 construct: endogenous in cells; host or cells: MDA-MB-231
Nature of the test: CDK protein degradation activity (Western blotting), CDK2. Type of test: cell-based. Conditions: MDA-MB-231 cells, 16 hours, Western blot. As for the experimental part: (§1) In order to evaluate the CDK protein degradation activity of the compounds according to the present invention, the following experiment was conducted.
(§2) MDA-MB-231 cells were seeded at 5×10^5 cells per well in a 6-well plate. The next day, the compounds were treated in each well to achieve final concentrations of 100 nM, 1 μM, and 10 μM. For the control group, an equal amount of DMSO was treated in the well as the compound. After 16 hours of treatment, cells were collected, and cell lysates were prepared using Triton X-100 lysis buffer (50 mM HEPES, pH 7.5, 40 mM NaCl, 1% Triton X-100, 1 mM EDTA, 1 mM EGTA, 10 mM pyrophosphate, 10 mM β-glycerophosphate, 50 mM NaF, 1 mM NaVO4, protease inhibitor). Cell lysates were quantified and separated by size using sodium dodecyl sulfate-polyacrylamide gel electrophoresis (SDS-PAGE). Western blotting was then performed using antibodies that recognize CDK2, CDK9, and tubulin, respectively. The results obtained by Western blotting were quantitatively analyzed using the ImageJ program, and representative images according to the experimental results are shown in FIG. 1.
(In western blotting, separated proteins are transferred to a membrane and probed.)

The target in the next test is T2, CDK9 (Homo sapiens, UniProt P50750).
T2 construct: endogenous in cells; host or cells: MDA-MB-231
T2 sequence (P50750 whole entry): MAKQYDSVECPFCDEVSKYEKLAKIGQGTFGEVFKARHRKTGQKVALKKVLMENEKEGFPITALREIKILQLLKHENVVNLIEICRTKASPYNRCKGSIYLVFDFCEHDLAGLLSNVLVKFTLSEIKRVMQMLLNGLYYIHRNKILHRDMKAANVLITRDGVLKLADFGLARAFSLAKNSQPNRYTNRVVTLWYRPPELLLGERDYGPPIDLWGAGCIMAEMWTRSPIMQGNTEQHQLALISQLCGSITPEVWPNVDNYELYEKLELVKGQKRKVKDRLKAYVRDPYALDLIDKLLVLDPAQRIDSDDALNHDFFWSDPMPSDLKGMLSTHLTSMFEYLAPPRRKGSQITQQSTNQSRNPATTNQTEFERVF
Nature of the test: CDK protein degradation activity (Western blotting), CDK9. The format is cell-based. Conditions: MDA-MB-231 cells, 16 hours, Western blot. The procedure:
as §1, §2

With `O=C1CC[C@H](N2C(=O)c3ccc(N4CC(C(=O)N5CCC(CCN6CCN(c7ccc(Nc8ncnc9c8ncn9C8CC(NC(=O)Cc9ccccc9)C8)cc7)CC6)CC5)C4)cc3C2=O)C(=O)N1` (stereo partly drawn) [Compound 328, N-((1s,3s)-3-(6-((4-(4-(2-(1-(1-(2-(2,6-dioxopiperidin-3-yl)-1,3-dioxoisoindolin-5-yl)azetidin-3-carbonyl)piperidin-4-yl)ethyl)piperazin-1-yl)phenyl)amino)-9H-purin-9-yl)cyclobutyl)-2-phenylacetamide], on CDK2, the “Enzyme degradation CDK2 (% remaining) @ 0.1 μM” value stood at 40%, the “Enzyme degradation CDK2 (% remaining) @ 1 μM” value worked out at 50% and the “Enzyme degradation CDK2 (% remaining) @ 10 μM” value is 40%. On CDK9, the “Enzyme degradation CDK9 (% remaining) @ 0.1 μM” value was 0/0/0%, the “Enzyme degradation CDK9 (% remaining) @ 1 μM” value is reported as 0/0/0% and the “Enzyme degradation CDK9 (% remaining) @ 10 μM” value is on record as 0/0/0%.

With `O=C1CC[C@@H](c2ccc(OCC(=O)N3CCC4(CC3)CC(N3CCC(c5ccc(Nc6ncnc7c6ncn7C6CC(NC(=O)Cc7ccccc7)C6)cc5)CC3)C4)cc2)C(=O)N1` (stereo partly drawn) [Compound 284, N-((1s,3s)-3-(6-((4-(1-(7-(2-(4-(2,6-dioxopiperidin-3-yl)phenoxy)acetyl)-7-azaspiro[3.5]nonan-2-yl)piperidin-4-yl)phenyl)amino)-9H-purin-9-yl)cyclobutyl)-2-phenylacetamide], on CDK2, the “Enzyme degradation CDK2 (% remaining) @ 0.1 μM” value is 40%, the “Enzyme degradation CDK2 (% remaining) @ 1 μM” value amounted to 50% and the “Enzyme degradation CDK2 (% remaining) @ 10 μM” value is 60%. Also, on CDK9, the “Enzyme degradation CDK9 (% remaining) @ 0.1 μM” value is given as 0/0/0%, the “Enzyme degradation CDK9 (% remaining) @ 1 μM” value is listed as 0/0/0% and the “Enzyme degradation CDK9 (% remaining) @ 10 μM” value is on record as 0/0/0%.

Take `O=C1CC[C@H](N2C(=O)c3ccc(N4CCC(C(=O)N5CCN(C6CCN(c7ccc(Nc8ncnc9c8ncn9C8CC(NC(=O)Cc9ccccc9)C8)cc7)CC6)CC5)CC4)cc3C2=O)C(=O)N1` (stereo partly drawn) [Compound 365, N-((1s,3s)-3-(6-((4-(4-(4-(1-(2-(2,6-dioxopiperidin-3-yl)-1,3-dioxoisoindolin-5-yl)piperidin-4-carbonyl)piperazin-1-yl)piperidin-1-yl)phenyl)amino)-9H-purin-9-yl)cyclobutyl)-2-phenylacetamide]: at CDK2, the “Enzyme degradation CDK2 (% remaining) @ 0.1 μM” value was 60/60/60%, the “Enzyme degradation CDK2 (% remaining) @ 1 μM” value was 60/60/60% and the “Enzyme degradation CDK2 (% remaining) @ 10 μM” value is given as 60/60/60%. Besides, at CDK9, the “Enzyme degradation CDK9 (% remaining) @ 0.1 μM” value is on record as 30%, the “Enzyme degradation CDK9 (% remaining) @ 1 μM” value came to 10% and the “Enzyme degradation CDK9 (% remaining) @ 10 μM” value was found to be 10%.

On to `O=C1CC[C@H](N2C(=O)c3ccc(NCC(=O)N4CCC(CN5CCN(c6ccc(Nc7ncnc8c7ncn8C7CC(NC(=O)c8c(Cl)cccc8Cl)C7)cc6)CC5)CC4)cc3C2=O)C(=O)N1` (stereo partly drawn) [Compound 164, 2,6-dichloro-N-((1s,3s)-3-(6-((4-(4-((1-((2-(2,6-dioxopiperidin-3-yl)-1,3-dioxoisoindolin-5-yl)glycyl)piperidin-4-yl)methyl)piperazin-1-yl)phenyl)amino)-9H-purin-9-yl)cyclobutyl)benzamide], for which, at CDK2, the “Enzyme degradation CDK2 (% remaining) @ 0.1 μM” value is 30/30/30%, the “Enzyme degradation CDK2 (% remaining) @ 1 μM” value is recorded as 30/30/30% and the “Enzyme degradation CDK2 (% remaining) @ 10 μM” value was 30/30/30%. Moreover, at CDK9, the “Enzyme degradation CDK9 (% remaining) @ 0.1 μM” value was 0/0/0%, the “Enzyme degradation CDK9 (% remaining) @ 1 μM” value is given as 0/0/0% and the “Enzyme degradation CDK9 (% remaining) @ 10 μM” value is 0/0/0%.

Consider `O=C1CC[C@H](n2nnc3ccc(N4CCC(CN5CCN(c6ccc(Nc7ncnc8c7ncn8C7CC(NC(=O)c8cccc(F)n8)C7)cc6)CC5)CC4)cc3c2=O)C(=O)N1` (stereo partly drawn) [Compound 429, N-((1s,3s)-3-(6-((4-(4-((1-(3-(2,6-dioxopiperidin-3-yl)-4-oxo-3,4-dihydrobenzo[d][1,2,3]triazin-6-yl)piperidin-4-yl)methyl)piperazin-1-yl)phenyl)amino)-9H-purin-9-yl)cyclobutyl)-6-fluoropicolinamide], for which, at CDK2, the “Enzyme degradation CDK2 (% remaining) @ 0.1 μM” value was 10/10/10%, the “Enzyme degradation CDK2 (% remaining) @ 1 μM” value is given as 10/10/10% and the “Enzyme degradation CDK2 (% remaining) @ 10 μM” value is 10/10/10%. Besides, at CDK9, the “Enzyme degradation CDK9 (% remaining) @ 0.1 μM” value was 0/0/0%, the “Enzyme degradation CDK9 (% remaining) @ 1 μM” value is on record as 0/0/0% and the “Enzyme degradation CDK9 (% remaining) @ 10 μM” value is 0/0/0%.

Consider `N#Cc1cccc(C(=O)NC2CC(n3cnc4c(Nc5ccc(N6CCN(CC7CCN(C(=O)C8CN(c9ccc%10c(c9)C(=O)N([C@H]9CCC(=O)NC9=O)C%10=O)C8)CC7)CC6)cc5)ncnc43)C2)n1` (stereo partly drawn) [Compound 454, 6-cyano-N-((1s,3s)-3-(6-((4-(4-((1-(1-(2-(2,6-dioxopiperidin-3-yl)-1,3-dioxoisoindolin-5-yl)azetidin-3-carbonyl)piperidin-4-yl)methyl)piperazin-1-yl)phenyl)amino)-9H-purin-9-yl)cyclobutyl)picolinamide], for which, at CDK2, the “Enzyme degradation CDK2 (% remaining) @ 0.1 μM” value is reported as 30%, the “Enzyme degradation CDK2 (% remaining) @ 1 μM” value is on record as 20% and the “Enzyme degradation CDK2 (% remaining) @ 10 μM” value is recorded as 10%. On CDK9, the “Enzyme degradation CDK9 (% remaining) @ 0.1 μM” value was 0/0/0%, the “Enzyme degradation CDK9 (% remaining) @ 1 μM” value is on record as 0/0/0% and the “Enzyme degradation CDK9 (% remaining) @ 10 μM” value is on record as 0/0/0%.

For `Cc1cccc(C(=O)N[C@H]2C[C@@H](n3cnc4c(NC5CCN(CCC6CCN(c7ccc8c(c7)C(=O)N([C@H]7CCC(=O)NC7=O)C8=O)CC6)CC5)ncnc43)C2)n1` [Compound 35, N-((1s,3s)-3-(6-((1-(2-(1-(2-(2,6-dioxopiperidin-3-yl)-1,3-dioxoisoindolin-5-yl)piperidin-4-yl)ethyl)piperidin-4-yl)amino)-9H-purin-9-yl)cyclobutyl)-6-methylpicolinamide], at CDK2, the “Enzyme degradation CDK2 (% remaining) @ 0.1 μM” value worked out at 100%, the “Enzyme degradation CDK2 (% remaining) @ 1 μM” value is on record as 60% and the “Enzyme degradation CDK2 (% remaining) @ 10 μM” value worked out at 60%. Further, at CDK9, the “Enzyme degradation CDK9 (% remaining) @ 0.1 μM” value was determined as 0%, the “Enzyme degradation CDK9 (% remaining) @ 1 μM” value is reported as 10% and the “Enzyme degradation CDK9 (% remaining) @ 10 μM” value was determined as 10%.

In the case of `O=C1CC[C@H](N2C(=O)c3cccc(N4CCN(CCCN5CCN(c6ccc(Nc7ncnc8c7ncn8C7CC(NC(=O)Cc8ccccc8)C7)cc6)CC5)CC4)c3C2=O)C(=O)N1` (stereo partly drawn) [Compound 238, N-((1s,3s)-3-(6-((4-(4-(3-(4-(2-(2,6-dioxopiperidin-3-yl)-1,3-dioxoisoindolin-4-yl)piperazin-1-yl)propyl)piperazin-1-yl)phenyl)amino)-9H-purin-9-yl)cyclobutyl)-2-phenylacetamide], at CDK2, the “Enzyme degradation CDK2 (% remaining) @ 0.1 μM” value came out at 100%, the “Enzyme degradation CDK2 (% remaining) @ 1 μM” value is 80% and the “Enzyme degradation CDK2 (% remaining) @ 10 μM” value was determined as 50%. At CDK9, the “Enzyme degradation CDK9 (% remaining) @ 0.1 μM” value worked out at 70%, the “Enzyme degradation CDK9 (% remaining) @ 1 μM” value is 20% and the “Enzyme degradation CDK9 (% remaining) @ 10 μM” value was determined as 0%.

For `O=C1CC[C@H](N2C(=O)c3ccc(N4CCC(CN5CCN(c6ccc(Nc7ncnc8c7ncn8C7CC(NC(=O)c8c(Cl)cccc8Cl)C7)cc6)CC5)CC4)cc3C2=O)C(=O)N1` (stereo partly drawn) [Compound 166, 2,6-dichloro-N-((1s,3s)-3-(6-((4-(4-((1-(2-(2,6-dioxopiperidin-3-yl)-1,3-dioxoisoindolin-5-yl)piperidin-4-yl)methyl)piperazin-1-yl)phenyl)amino)-9H-purin-9-yl)cyclobutyl)benzamide], at CDK2, the “Enzyme degradation CDK2 (% remaining) @ 0.1 μM” value turned out to be 10%, the “Enzyme degradation CDK2 (% remaining) @ 1 μM” value is recorded as 20% and the “Enzyme degradation CDK2 (% remaining) @ 10 μM” value was 20%. At CDK9, the “Enzyme degradation CDK9 (% remaining) @ 0.1 μM” value was 0/0/0%, the “Enzyme degradation CDK9 (% remaining) @ 1 μM” value is 0/0/0% and the “Enzyme degradation CDK9 (% remaining) @ 10 μM” value is 0/0/0%.

For the molecule `O=C1CC[C@H](N2C(=O)c3cccc(NCC(=O)N4CCC(CN5CCN(c6ccc(Nc7ncnc8c7ncn8[C@H]7C[C@@H](NC(=O)c8cccc(C(F)(F)F)n8)C7)cc6)CC5)CC4)c3C2=O)C(=O)N1` [Compound 425, N-((1s,3s)-3-(6-((4-(4-((1-((2-(2,6-dioxopiperidin-3-yl)-1,3-dioxoisoindolin-4-yl)glycyl)piperidin-4-yl)methyl)piperazin-1-yl)phenyl)amino)-9H-purin-9-yl)cyclobutyl)-6-(trifluoromethyl)picolinamide], on CDK2, the “Enzyme degradation CDK2 (% remaining) @ 0.1 μM” value is given as 0/0/0%, the “Enzyme degradation CDK2 (% remaining) @ 1 μM” value is 0/0/0% and the “Enzyme degradation CDK2 (% remaining) @ 10 μM” value was 0/0/0%. Also, at CDK9, the “Enzyme degradation CDK9 (% remaining) @ 0.1 μM” value is on record as 0/0/0%, the “Enzyme degradation CDK9 (% remaining) @ 1 μM” value was 0/0/0% and the “Enzyme degradation CDK9 (% remaining) @ 10 μM” value is recorded as 0/0/0%.

On to `Cc1cccc(C(=O)N[C@H]2C[C@@H](n3cnc4c(NCCC5CCN(CC6CCN(C(=O)CCNc7ccc8c(c7)C(=O)N([C@H]7CCC(=O)NC7=O)C8=O)CC6)CC5)ncnc43)C2)n1` (racemic) [Compound 310, N-((1s,3s)-3-(6-((2-(1-((1-(3-((2-(2,6-dioxopiperidin-3-yl)-1,3-dioxoisoindolin-5-yl)amino)propanoyl)piperidin-4-yl)methyl)piperidin-4-yl)ethyl)amino)-9H-purin-9-yl)cyclobutyl)-6-methylpicolinamide], for which, at CDK2, the “Enzyme degradation CDK2 (% remaining) @ 0.1 μM” value is listed as 100%, the “Enzyme degradation CDK2 (% remaining) @ 1 μM” value was 70% and the “Enzyme degradation CDK2 (% remaining) @ 10 μM” value was 100%. On CDK9, the “Enzyme degradation CDK9 (% remaining) @ 0.1 μM” value came out at 40%, the “Enzyme degradation CDK9 (% remaining) @ 1 μM” value was determined as 0% and the “Enzyme degradation CDK9 (% remaining) @ 10 μM” value worked out at 0%.
